Test results from patent US5016655A, “Cigarette manufacturing process” (priority 1989, dated 1991).
Entries after “also recorded” stand apart in the source; their conditions may differ. Like-named read-outs stand apart in the source and are kept apart here.

How the values were obtained:
human = settings: cited from earlier work
[1] = cited from earlier work; for Boiling Point: Table V
[2] = test system: localization of radioactivity of [14C]NNN in bronchial epithelium; test: alcohols by inhalation, localization of radioactivity of [14C]NNN (Table VII); assay type: in vivo, mice; settings: for potency as inhibitor in mice: mouse, in vivo
Experimental: Additional alcohols were tested for their effects on the localization of radioactivity of [^14 C]NNN in bronchial epithelium when the alcohols were administered by inhalation. For these studies, two ml of the alcohol were placed in the bottom of a 600 ml glass beaker. A wire mesh platform was constructed so that the mouse was positioned approximately three-quarter to one inch above the alcohol. The beaker was kept tightly sealed unless otherwise indicated. All mice were fasted overnight, except where noted, and sacrificed one hour after intravenous [^14 C]NNN administration. These mice were also processed for whole-body autoradiography. Although the protocols varied slightly as summarized below, these minor differences should not effect the results.
A. Exposures in beakers maintained at 50° C. (plus or minus
B. Exposure in beakers at room temperature. Beakers were
C. Beakers equilibrated with alcohols at least 20 min in […]

[3] = test system: localization of radioactivity ([14C]NNN) in bronchial epithelium; test: effect of substances on localization of radioactivity one hour after intravenous [14C]NNN (Table VI); assay type: in vivo, mice; settings: for response on the uptake of radioactivity in the bronchial epithelium / decrease in the localization of radioactivity in bronchial epithelium: solids at ambient temperature; for decrease in the localization of radioactivity in bronchial epithelium: one hour after intravenous [14C]NNN
From the text: Table VI below lists the compounds tested for their effect on the localization of radioactivity in bronchial epithelium one hour after intravenous administration of [^14 C]NNN. Unless indicated otherwise, the compounds were parenterally administered acutely at various times prior to [^14 C]NNN. In many cases only one mouse was studied for each compound. […].
Effect of substances on the localization of radioactivity in bronchial epithelium of mice one hour after intravenously receiving [^14 C] nitrosonornicotine.
For all the remaining compounds the general protocol was to administer the potential blocker some minutes prior to administration of the [^14 C]NNN. Potential blockers were given orally, intraperitoneally or by inhalation, and the [^14 C]NNN was given intravenously.

rats = settings: cited from earlier work
[4] = test system: localization of nitrosamines (NNN, NNK) in tissues; test: nitrosamine delocalization / blocking, general statements; settings: in vivo
[5] = test system: localization of radioactivity ([14C]NNN) in bronchial epithelium; test: orally administered alcohols, localization of radioactivity after intravenous [14C]NNN; assay type: in vivo, mice; settings: gavage 1.0 g/kg, 20 min before iv [14C]NNN
Experimental: For each of these alcohols, the mouse was fasted overnight, the alcohol in aqueous solution at a dose of 1.0 g/kg was administered by gavage and after twenty minutes the [^14 C]NNN was injected intravenously. All mice were sacrificed one hour after the [^14 C]NNN treatment and processed for whole-body autoradiography,as described previously.

tumor formation = settings: rat, in vivo; cited from earlier work
[6] = test system: nitrosamine formation on epithelial membranes; tumor development; settings: cited from earlier work
[7] = test system: localization of radioactivity ([14C]NNN) in salivary duct and bronchial epithelium and liver; test: whole-body autoradiography of [14C]NNN localization after oral alcohols (Example 1, FIG. 1); assay type: in vivo, male C57BL/6J mice
Experimental: One hour later, the mice were anesthetized lightly with ether and frozen by immersion in dry ice/hexane. Twenty u-thick whole-body sagittal sections of the frozen mice were taken onto Scotch tape and were then processed for whole-body autoradiography by known methods. See W. Waddell et al., Drug Fate and Metabolism: Methods and Techniques, E. R. Garrett and J. L. Hirtz, Eds. […] Photometric density in areas of the developed autoradiographs was measured with an ADG Instruments photometer and a photocell with an aperture of three mm lying on the easel of a photographic enlarger. The X-ray film was placed in the enlarger and raised to produce a magnification of thirty-five times on the easel.
NNN. […] (Twenty minutes is the average time it takes for alcohols introduced by oral intubation into mice to reach the peak blood level.)
The number within each bar thereof represents the dose in g/kg of that alcohol which was administered orally twenty minutes before the [^14 C] NNN was given intraveously. The mice were frozen one hour after receiving the [^14 C] NNN. The means for each mouse were from fifteen measurements on random areas of that site (five absorbancies on each of three autoradiographs) after setting blood in each on zero.

[8] = test system: nitrosamine ([14C]NNN) localization; test: imidazole intraperitoneal, [14C]NNN autoradiography (Examples 4 and 5); assay type: in vivo, male C57BL/6J mouse; settings: ip
Experimental: An adult male C57BL/6J mouse was injected intraperitoneally with 0.02 ml/g body weight of a solution of imidazole in water. The imidazole solution concentration was such that 0.05 g of imidazole was delivered per kg of body weight. […] See Example 1.
Example 4 was duplicated except that the adult mouse was injected intraperitoneally with 0.02 ml/g body weight of a solution of imidazole in water, wherein the solution concentration was such that 0.25 g of imidazole was delivered per kg of body weight.

OCCC(O)CO (stereo not shown) [1,2,4-ButanetrioI, 1,2,4-butanetriol]
Toxicity (human; Table V): Non-toxic
Boiling Point [1]: 172 °C

CC(O)CCO (stereo not shown) [1,3 Butanediol]
Toxicity (human; Table V): Non-toxic
Boiling Point [1]: 207 °C

CCCCCCO [1-hexanol]
potency as inhibitor in mice [2]: among the most potent inhibitors

CC(C)[C@@H]1CC[C@@H](C)C[C@H]1O [1-menthol]
response on the uptake of radioactivity in the bronchial epithelium [3]: minimal response

CCC(CC)CO [2-Ethyl butyl alcohol]
Toxicity (human; Table V): Low-toxicity
Boiling Point [1]: 149 °C

CCCCC(CC)CO (stereo not shown) [2-ethyl hexanol]
Acute Oral LD50 (rats; rat, in vivo, po): 3.2-7.1
Toxicity (human; Table V): Low-toxicity

CCCCCCC(C)O (stereo not shown) [2-octanol]
potency as inhibitor in mice [2]: among the most potent inhibitors
effectiveness against NNN or NNK [4]: against NNK
boiling points [1]: 180 °

CCCC(C)O (stereo not shown) [2-pentanol]
decrease in the localization of radioactivity in bronchial epithelium [5]: significant decrease

CC1CCCC(O)C1 (stereo not shown) [3-methylcyclohexanol]
potency compared with cyclohexanol ([2]; inhalation): even more potent than cyclohexanol
potency as inhibitor in mice [2]: among the most potent inhibitors
boiling points [1]: 174 °

CCCCCCC(C)O (stereo not shown) [Capryl alcohol]
Toxicity (human; Table V): Low toxity
Boiling Point [1]: 178 °C

CCCCCCCCCCCCCCCCO [Cetyl alcohol, hexadecanol]
Toxicity (human; Table V): Non-toxic
Toxicity (human): non-toxic
Boiling Point [1]: 344 °C

OCC=Cc1ccccc1 [Cinnamyl alcohol]
Boiling Point [1]: 257.5 °C

C[S+](C)[O-] [DMSO, dimethylsulfoxide]
decrease of radioactivity in bronchial epithelium, oral vs ip ([3]; given orally): less decrease
nitrosamine delocalization / inhibition of nitrosamine localization [4]: found to delocalize nitrosamines

CCCCCCCCCCCCO [Lauryl alcohol]
Toxicity (human; Table V): Low-toxicity
Boiling Point [1]: 255 °C

CN(CCCC(=O)c1cccnc1)N=O [NNK]
carcinogenicity / tumor induction (tumor formation): powerful environmental carcinogens

CC(C)(O)C(C)(C)O [Pinacol]
Toxicity (human; Table V): Low-toxicity
Boiling Point [1]: 174 °C

[Se] [Selenium]
effect on tumor development [6]: inhibit tumor development

CCCCCCCCCCCCCCCCCCO [Stearyl alcohol, octadecanol]
Toxicity (human; Table V): Non-toxic
Toxicity (human): non-toxic
Boiling Point [1]: 210 °C

O=C1O[C@H]([C@@H](O)CO)C(O)=C1O [Vitamin C, ascorbic acid]
effect on formation of nitrosamines on epithelial membranes [6]: prevent the formation of nitrosamines

CCC(C)CO (stereo not shown) [active amyl alcohol, 2-methyl-1-butanol]
decrease in the localization of radioactivity in bronchial epithelium [5]: significant decrease
Acute Oral LD50 (rats; rats, oral): 4.9 q/kg

S=C=NCc1ccccc1 [benzyl isothiocyanate]
nitrosamine delocalization / inhibition of nitrosamine localization [4]: found to delocalize nitrosamines

NCCCC(N)(C(=O)O)C(F)F (stereo not shown) [difluoromethylornithine]
response on the uptake of radioactivity in the bronchial epithelium [3]: minimal response

CCCCCCCCCCCCO [dodecanol, 98%, dodecanol]
Acute Oral LD50 (rats; rats, oral): 40 q/kg

CCO [ethanol]
localization of radioactivity in salivary duct and bronchial epithelium and in both periportal and central areas of the liver ([7]; 20 min before iv [14C]NNN): reduced

c1c[nH]cn1 [imidazole]
nitrosamine delocalization ([8]; 0.05 g/kg): Significant nitrosamine delocalization
nitrosamine delocalization ([8]; 0.25 g/kg): significant delocalization of nitrosamine
decrease in the localization of radioactivity in bronchial epithelium [3]: significant decrease
nitrosamine delocalization / inhibition of nitrosamine localization [4]: found to delocalize nitrosamines

CC(C)CCO [isoamyl alcohol]
decrease in the localization of radioactivity in bronchial epithelium [5]: significant decrease
Acute Oral LD50 (rats; rats, oral): 1.30 q/kg

CC(C)CO [isobutyl alcohol, isobutanol]
decrease in the localization of radioactivity in bronchial epithelium [5]: significant decrease
Acute Oral LD50 (rats; rats, oral): 2.46 q/kg

CC(C)O [isopropyl alcohol, isopropanol]
Acute Oral LD50 (rats; rats, oral): 5.84 q/kg

CC1CCC(C(C)C)C(O)C1 (stereo not shown) [menthol, reference compound]
nitrosamine delocalization / inhibition of nitrosamine localization [4]: does not have the same nitrosamine blocking effect; also recorded: does not inhibit nitrosamine localization
Toxicity (human; Table V): Flavor Agent
Boiling Point [1]: 216 °C

CC(C)(C(=O)c1cccnc1)c1cccnc1 [metyrapone]
decrease in the localization of radioactivity in bronchial epithelium [3]: significant decrease

CCCCCCCCCCO [n-Decyl alcohol]
Toxicity (human; Table V): Low-toxicity
Boiling Point [1]: 210 °C

CCCCCCCCCO [n-Nonyl alcohol]
Toxicity (human; Table V): Low-toxicity

CCCCCCCCO [n-Octyl alcohol]
Toxicity (human; Table V): Flavor agent
Boiling Point [1]: 86 °C

c1ccc2ccccc2c1 [naphthalene]
decrease in the localization of radioactivity in bronchial epithelium [3]: significant decrease

C#CCN(C)Cc1ccccc1 [parqyline]
response on the uptake of radioactivity in the bronchial epithelium [3]: minimal response

O=Cc1ccc2c(c1)OCO2 [piperonal]
decrease in the localization of radioactivity in bronchial epithelium [3]: significant decrease

CCCO [propyl alcohol, n-propanol]
Acute Oral LD50 (rats; rats, oral): 5.4 q/kg

NCCCCN [putrescine]
response on the uptake of radioactivity in the bronchial epithelium [3]: minimal response

c1cn[nH]c1 [pyrazole]
response on the uptake of radioactivity in the bronchial epithelium [3]: minimal response
nitrosamine delocalization / inhibition of nitrosamine localization [4]: found to delocalize nitrosamines

CC1=C(/C=C/C(C)=C/C=C/C(C)=C/C(=O)O)C(C)(C)CCC1 [retinoic acid]
response on the uptake of radioactivity in the bronchial epithelium [3]: minimal response

CC1=C(/C=C/C(C)=C/C=C/C(C)=C/CO)C(C)(C)CCC1 [retinol]
response on the uptake of radioactivity in the bronchial epithelium [3]: minimal response

CCC(C)O (stereo not shown) [sec-butyl alcohol, sec-butanol]
decrease in the localization of radioactivity in bronchial epithelium [5]: significant decrease

[Cl-].[Na+] [sodium chloride, reference compound]
LD50 (rats; rats, oral, comparison): about 3.75 g/Kg

CC(C)(C)O [t-butanol]
localization of [14C]NNN in bronchial epithelium ([7]; high dosage): almost completely abolished; also recorded: greatest inhibition

Dipropylene glycol monomethyl
Boiling Point [1]: 189 °C

Methyl cyclohexanol
Boiling Point [1]: 173 °C

Vitamin A
effect on tumor development [6]: inhibit tumor development

diaminopropane HCl
response on the uptake of radioactivity in the bronchial epithelium [3]: minimal response

vitamin E
effect on formation of nitrosamines on epithelial membranes [6]: prevent the formation of nitrosamines
